Data from US5043332A, “Novel 11β-substituted -19-nor-steriods” (priority 1981, dated 1991).
Read-outs that look alike come from different tables or passages of the source.

Columns and labels:
[1] = tested on: thymocytes of surrenalectomized rats; experiment: Antiglucocorticoidal activity, incorporation of tritiated uridine in thymocytes; assay type: cell-based; details: for % inhibition of effect of Dexamethasone (symbol) / inhibition at 1 µM: 5 × 10^-8 M dexamethasone + test product 10^-6 M; for inhibition at 0.1 µM / inhibition at 0.01 µM / inhibition at 1 µM: Rattus norvegicus, Thymocyte; for inhibition at 0.1 µM: 5 × 10^-8 M dexamethasone + test product 10^-7 M; for inhibition at 0.01 µM: 5 × 10^-8 M dexamethasone + test product 10^-8 M; for opposition to the effect of dexamethasone on tritiated uridine incorporation (in words): with 5×10^-8 M dexamethasone
Procedure: III. Antiglucocorticoidal Activity
The test used was that of Dausse et al [Molecular Pharmacology, Vol. 13 (1977), p. 948-955] entitled "The relationship between glucocorticoid structure and effects upon thymocytes" for […] thymocytes. The thymocytes of surrenalectomized rats were incubated at 37° C. for 3 hours in a nutritive medium containing 5×10^-8 M of dexamethasone in the presence or absence of the test compound at different concentrations. Tritiated uridine was added and incubation was continued for one hour. The incubates were cooled and treated with a 5% trifluoroacetic acid solution and the mixture was filtered with Whatman GF/A paper. The filter was washed 3 times with a 5% trifluoroacetic acid solution and retained radioactivity on the filter was determined.

[2] = biological target: T1, Androgen receptor of prostate of rats (Rattus norvegicus, UniProt P15207); experiment: Androgen receptor binding (displacement of tritiated product P); details: conclusion
T1 construct: The prostates were removed, weighed and homogenized at 0° C; from tissue; host or cells: rat prostate, 105,000 g supernatant (castrated male Sprague-Dawley rats)
T1 sequence (P15207 1-902): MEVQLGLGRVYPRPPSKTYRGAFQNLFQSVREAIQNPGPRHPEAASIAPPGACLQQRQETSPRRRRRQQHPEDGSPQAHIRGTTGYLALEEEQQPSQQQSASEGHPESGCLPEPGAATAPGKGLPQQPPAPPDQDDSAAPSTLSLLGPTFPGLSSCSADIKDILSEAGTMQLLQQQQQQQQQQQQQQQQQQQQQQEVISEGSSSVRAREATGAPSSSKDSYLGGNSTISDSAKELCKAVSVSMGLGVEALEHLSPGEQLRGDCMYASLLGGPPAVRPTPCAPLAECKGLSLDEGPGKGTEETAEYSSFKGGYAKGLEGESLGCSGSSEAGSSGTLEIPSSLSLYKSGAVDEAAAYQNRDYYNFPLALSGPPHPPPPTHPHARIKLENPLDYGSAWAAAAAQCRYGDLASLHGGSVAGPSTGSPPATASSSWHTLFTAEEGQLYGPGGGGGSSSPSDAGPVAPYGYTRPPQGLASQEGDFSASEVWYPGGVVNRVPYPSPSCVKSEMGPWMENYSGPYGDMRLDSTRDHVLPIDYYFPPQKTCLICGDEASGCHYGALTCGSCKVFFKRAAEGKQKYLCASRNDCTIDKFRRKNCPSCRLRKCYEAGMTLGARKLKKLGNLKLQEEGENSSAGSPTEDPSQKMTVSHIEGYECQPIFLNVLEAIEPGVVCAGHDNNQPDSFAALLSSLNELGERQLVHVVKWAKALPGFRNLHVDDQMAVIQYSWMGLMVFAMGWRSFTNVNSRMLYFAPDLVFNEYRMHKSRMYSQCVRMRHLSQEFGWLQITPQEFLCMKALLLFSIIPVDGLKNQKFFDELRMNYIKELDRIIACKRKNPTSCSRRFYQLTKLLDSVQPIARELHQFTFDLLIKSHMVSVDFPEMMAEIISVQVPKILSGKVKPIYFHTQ
Procedure: B. Androgen receptor of prostate of rats
Male Sprague-Dawley EPOS rats weighing of 160 to 200 g were castrated and 24 hours later, the animals were killed. The prostates were removed, weighed and homogenized at 0° C. with a polytetrafluoroethylene-glass Potter with a buffered TS solution (Tris, 10 mM, 0.25M Saccharose, HCl-pH of 7.4) using 1 g of tissue per 5 ml of TS. The homogenate was then ultracentrifuged at 105,000 g for 60 […] (T) of product P or 17α-methyl-Δ^4,9,11 -estratriene-17β-ol-3-one in the presence of increasing concentration (0-1,000×10^-9 M) of either cold P, cold testosterone or the test compound. The concentration of tied tritiated (B) was measured for each incubate by the technique of adsorption on carbon-dextran.
(§1) The calculation of the relative affinity of […] (ARL) was identical for all of the above receptor tests. One traced the following two curves: the percentage of tied tritiated hormone B/T as a function of the logarithm of the cold hormone concentration and B/T as a function of the logarithm of the concentration of the cold test product. One determined the line of the equation. [formula]
(§2) The intersection of the I50 line and the curves permits one to determine the concentrations of the cold hormone of the reference (CH) and the cold test compound (CX) which inhibit by 50% the tieing of tritiated hormone with the receptor. The relative affinity of tieing (ARL) of the test product was determined by the equation: [formula]

[3] = biological target: T2, Progestogen receptor of the uterus of rabbits (Oryctolagus cuniculus, UniProt P06186); experiment: Progestogen receptor binding (displacement of tritiated product R); design: species or system rabbit; details: conclusion
T2 construct: The uterus was removed, weighed and homogenized at 0° C; from tissue; host or cells: rabbit uterus, 105,000 g supernatant (estradiol-primed immature rabbits)
T2 sequence (P06186 1-930): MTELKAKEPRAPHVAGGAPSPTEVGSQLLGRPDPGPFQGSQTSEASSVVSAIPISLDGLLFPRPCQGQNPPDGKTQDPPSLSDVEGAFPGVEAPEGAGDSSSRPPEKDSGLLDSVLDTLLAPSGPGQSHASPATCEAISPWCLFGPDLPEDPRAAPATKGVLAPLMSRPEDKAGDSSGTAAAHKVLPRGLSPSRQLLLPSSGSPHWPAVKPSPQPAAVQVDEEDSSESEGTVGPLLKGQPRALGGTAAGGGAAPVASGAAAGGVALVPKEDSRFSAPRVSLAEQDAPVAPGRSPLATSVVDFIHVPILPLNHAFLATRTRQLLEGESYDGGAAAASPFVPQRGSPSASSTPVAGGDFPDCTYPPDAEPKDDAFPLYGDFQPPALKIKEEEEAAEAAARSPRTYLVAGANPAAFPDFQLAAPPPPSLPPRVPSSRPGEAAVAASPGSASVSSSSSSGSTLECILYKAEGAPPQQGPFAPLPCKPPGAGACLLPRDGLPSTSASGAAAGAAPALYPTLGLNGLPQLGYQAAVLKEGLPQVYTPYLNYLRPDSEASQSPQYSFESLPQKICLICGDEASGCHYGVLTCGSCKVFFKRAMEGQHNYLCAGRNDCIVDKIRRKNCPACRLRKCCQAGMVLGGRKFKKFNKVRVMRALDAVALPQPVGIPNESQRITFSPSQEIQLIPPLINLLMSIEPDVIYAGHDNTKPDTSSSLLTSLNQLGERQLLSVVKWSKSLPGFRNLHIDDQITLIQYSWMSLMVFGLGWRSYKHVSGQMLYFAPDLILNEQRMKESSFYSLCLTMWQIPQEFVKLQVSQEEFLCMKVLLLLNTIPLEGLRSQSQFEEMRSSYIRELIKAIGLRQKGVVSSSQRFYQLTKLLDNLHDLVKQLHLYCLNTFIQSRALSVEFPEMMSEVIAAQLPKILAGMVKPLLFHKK
Procedure: C. Progestogen receptor of the uterus of rabbits
Immature rabbits weighing about 1 kg received a cutaneous application of 25 μg of estradiol and the animals were killed 5 days later. The uterus was removed, weighed and homogenized at 0° C. with a polytetrafluoroethylene-glass Potter, in a buffered TS solution [Tris 10. mM, 0.25M of saccharose, HCl-pH of 7.4] with 1 g of tissue per 50 ml of TS. […] The concentration of tied tritiated R (B) was then measured for each incubate by the technique of adsoprtion on carbon-dextran.
as §1, §2

[4] = read-out: % inhibition of effect of Dexamethasone
[5] = second table, read-out: % of inhibition of effect of Dexamethasone

Compound	inhibition at 0.1 µM [1, 4] [%]	inhibition at 0.01 µM [1, 4] [%]	inhibition at 1 µM [1, 4] [%]	also measured
CC#C[C@]1(O)CC[C@H]2[C@@H]3CCc4cc(O)ccc4[C@H]3[C@@H](c3ccc(N(C)C)cc3)C[C@@]21C [2 (17 OH), 11β-(4-dimethylaminophenyl)-17α-(prop-1-ynyl)-Δ^1,3,5(10) -estratriene-3,17β-diol]	91	41	–	% inhibition of effect of Dexamethasone (symbol) [1]: * (A dose of 10^-6 M inhibited the effect of dexamethasone totally)
C/C=C/[C@]1(O)CC[C@H]2[C@@H]3CCC4=C(CCC(=O)C4)[C@H]3[C@@H](c3cccc(OC)c3)C[C@@]21C [6 (17α propenyle), 11β-(3-methoxyphenyl)-17α-(E)-(prop-1-enyl)-Δ^5(10) -estrene-17β-ol-3-one]	0	0	56	–
CC#C[C@]1(O)CC[C@H]2[C@@H]3CCc4cc(O)ccc4[C@H]3[C@@H](c3ccc(N(C)C)cc3)C[C@@]21C [Example 2, 11β-(4-dimethylaminophenyl)-17α-(prop-1-ynyl)-Δ^1,3,5(10) -estratriene-3,17β-diol]	–	–	–	affinity for androgen receptors (in words) [2]: slightly moderate affinity; affinity for progestogen receptors (in words) [3]: very remarkable affinity; opposition to the effect of dexamethasone on tritiated uridine incorporation (in words) [1]: opposed this effect
CC#C[C@]1(O)CC[C@H]2[C@@H]3CCC4=CC(=O)C(=COC(C)=O)CC4=C3[C@@H](c3ccc(N(C)C)cc3)C[C@@]21C [Example 3, 2-(acetyloxymethylene)-11β-(4-dimethylaminophenyl)-17α-(prop-1-ynyl)-Δ^4,9-estradiene-17β-ol-3-one]	0	0	60	–
CC#C[C@]1(O)CC[C@H]2[C@@H]3CCC4=CC(=O)C(=CN5CCOCC5)CC4=C3[C@@H](c3ccc(N(C)C)cc3)C[C@@]21C [Example 4, 2-(4-morpholinylmethylene)-11β-(4-dimethylaminophenyl)-17α-(prop-1-ynyl)-Δ^4,9-estradiene-17β-ol-3-one]	0	0	51	–
CC#C[C@]1(O)CC[C@H]2[C@@H]3CCC4=C(CCC(=O)C4)[C@H]3[C@@H](c3cccc(OC)c3)C[C@@]21C [Example 6, 11β-(3-methoxyphenyl)-17α-(prop-1-ynyl)-Δ^5(10) -estrene-17β-ol-3-one]	0	0	68	–
CC#C[C@]1(O)CC[C@H]2[C@@H]3CCC4=Cc5oncc5CC4=C3[C@@H](c3ccc(N(C)C)cc3)C[C@@]21C [Example 7, 11β-(4-dimethylaminophenyl)-17α-(prop-1-ynyl)-isoxazolo[4,5-b]-Δ^4,9-estradiene-17β-ol]	27	0	–	% inhibition of effect of Dexamethasone (symbol) [1]: * (A dose of 10^-6 M inhibited the effect of dexamethasone totally)
C#CC[C@]1(O)CC[C@H]2[C@@H]3CCC4=CC(=O)CCC4=C3[C@@H](c3ccc(N(C)C)cc3)C[C@@]21C [Example 31, 11β-[4-(N,N-dimethylamino)-phenyl]-17α-(prop-2-ynyl)-Δ^4,9-estradiene-17β-ol-3-one]	–	–	–	affinity for androgen receptors (in words) [2]: slightly moderate affinity; affinity for progestogen receptors (in words) [3]: very remarkable affinity; inhibition at 1 µM [1, 5]: 99%; inhibition at 0.1 µM [1, 5]: 60%; inhibition at 0.01 µM [1, 5]: 28%; opposition to the effect of dexamethasone on tritiated uridine incorporation (in words) [1]: opposed this effect
C[C@@H]1C[C@H]2[C@@H]3CCC4=CC(=O)C=C[C@]4(C)[C@@]3(F)[C@@H](O)C[C@]2(C)[C@@]1(O)C(=O)CO [dexamethasone, reference compound]	–	–	–	effect on incorporation of tritiated uridine (in words) ([1]; glucocorticoid alone): provoked a lessening of incorporation of tritiated uridine
